Consider 20 compounds from US7230011B2, “Benzenesulfonic acid indol-5-yl esters as antagonists of the 5ht6 receptor” (Eli Lilly and Company, priority 2002, dated 2007).

In data set [1] the target is 5-HT6 receptor (Homo sapiens, UniProt P50406). The conditions noted are these: cited from earlier work; for Ki: 5-HT6 receptor; for affinity for the 5-HT6 receptor: in words.
Data set [2] has as its target 5-HT2A receptor (Homo sapiens, UniProt P28223). The conditions noted are these: 5-HT6 versus 5-HT2A; cited from earlier work.
The conditions of data set [3]: cited from earlier work; for pharmacokinetics: in words.
Data set [4] concerns yawning behavior. The settings on record: in vivo; cited from earlier work.
In data set [5] the test system is glutamate release in the prefrontal cortex. The conditions noted are these: 10 mg/kg, sc; cited from earlier work.
Data set [6] relates to Morris water maze. The settings on record: in vivo; cited from earlier work.
Data set [7] has as its system aged rats. The settings on record: cited from earlier work.
For data set [8], the system named is stretching behavior. The settings on record: cited from earlier work; for block of stretching behavior induced by Ro 04-6790: methyl-scopolamine at doses known to be peripherally selective.
Data set [9] deals with Male Sprague-Dawley rats. The settings on record: s.c., six-hour delay.
In data set [10] the test system is rats with unilateral nigrostriatal 6-OH-DA lesions. The conditions noted are these: cited from earlier work.
The test system of data set [11] is object recognition test. The conditions noted are these: in vivo; cited from earlier work.

Where two headings read alike, the source gives them in different places.

Sequence of 5-HT6 receptor (P50406 whole entry): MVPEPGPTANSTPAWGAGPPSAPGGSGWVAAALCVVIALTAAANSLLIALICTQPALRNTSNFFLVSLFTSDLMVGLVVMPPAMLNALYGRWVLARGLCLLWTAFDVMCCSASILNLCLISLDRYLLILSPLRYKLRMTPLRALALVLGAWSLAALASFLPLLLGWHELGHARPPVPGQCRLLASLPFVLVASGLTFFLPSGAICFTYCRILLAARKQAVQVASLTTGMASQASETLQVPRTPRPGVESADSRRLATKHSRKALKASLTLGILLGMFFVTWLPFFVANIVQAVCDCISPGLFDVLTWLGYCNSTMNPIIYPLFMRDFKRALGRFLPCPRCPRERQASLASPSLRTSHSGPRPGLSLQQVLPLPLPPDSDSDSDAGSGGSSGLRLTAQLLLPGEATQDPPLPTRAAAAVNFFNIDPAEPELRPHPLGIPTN
Sequence of 5-HT2A receptor (P28223 whole entry): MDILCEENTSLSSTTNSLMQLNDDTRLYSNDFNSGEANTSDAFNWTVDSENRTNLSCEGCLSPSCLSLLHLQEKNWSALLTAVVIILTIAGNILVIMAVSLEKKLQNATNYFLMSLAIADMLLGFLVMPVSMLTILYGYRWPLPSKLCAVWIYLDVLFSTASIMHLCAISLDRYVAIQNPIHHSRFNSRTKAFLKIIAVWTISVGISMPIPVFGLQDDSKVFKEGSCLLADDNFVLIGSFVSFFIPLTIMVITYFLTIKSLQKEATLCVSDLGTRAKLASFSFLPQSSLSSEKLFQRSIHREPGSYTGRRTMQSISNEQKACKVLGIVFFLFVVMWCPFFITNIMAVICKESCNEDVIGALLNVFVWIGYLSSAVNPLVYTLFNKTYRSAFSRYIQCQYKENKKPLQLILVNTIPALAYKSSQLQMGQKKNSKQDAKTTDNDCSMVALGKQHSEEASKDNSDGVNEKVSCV

Compound `Cc1ccc(S(=O)(=O)Oc2ccc3[nH]cc(C4CCN(C)CC4)c3c2)cc1` [Example 39, 4-Methylphenylsulfonic acid 3-(1-methylpiperidin-4-yl)-1H-indol-5-yl ester] gave a melting point of 186 to 187 °C.
On the same count and under the same terms, the result for `CN1CCC(c2c[nH]c3ccc(OS(=O)(=O)c4ccccc4F)cc23)CC1` [Example 40, 2-Fluorobenzenesulfonic acid 3-(1-methylpiperidin-4-yl)-1H-indol-5-yl ester] reads 180 to 182 °C.
Still for that read-out and setting: the result for `CN1CCC(c2c[nH]c3ccc(OS(=O)(=O)c4ccc(F)c(F)c4F)cc23)CC1` [Example 41, 2,3,4-Trifluorobenzenesulfonic acid 3-(1-methylpiperidin-4-yl)-1H-indol-5-yl ester] reads 160 to 162 °C.
Still for that read-out and setting: the result for `CN1CCC(c2c[nH]c3ccc(OS(=O)(=O)c4c(F)cccc4F)cc23)CC1` [Example 42, 2,6-Difluorobenzenesulfonic acid 3-(1-methylpiperidin-4-yl)-1H-indol-5-yl ester] reads 214 to 215 °C.
Take `CN1CCC(c2c[nH]c3ccc(OS(=O)(=O)c4ccc([N+](=O)[O-])cc4)cc23)CC1` [Example 43, 4-Nitrobenzenesulfonic acid 3-(1-methylpiperidin-4-yl)-1H-indol-5-yl ester]: the melting point lay in the range of 171 to 172 °C.
Take `CN1CCC(c2c[nH]c3ccc(OS(=O)(=O)c4ccccc4)cc23)CC1` [Example 45, Benzenesulfonic acid 3-(1-methylpiperidin-4-yl)-1H-indol-5-yl ester]: the melting point lay within 189 to 194 °C.
Still for that read-out and setting: then `CN1CCC(c2c[nH]c3ccc(OS(=O)(=O)c4ccc(F)cc4)cc23)CC1` [Example 51, 4-Fluorobenzenesulfonic acid 3-(1-methylpiperidin-4-yl)-1H-indol-5-yl ester], with 170 to 172 °C; and `Cc1cc(OS(=O)(=O)c2c(F)cccc2F)cc2c(C3CCN(C)CC3)cn(C)c12` [Example 56, 2,6-Difluorobenzenesulfonic acid 1,7-dimethyl-3-(1-methylpiperidin-4-yl)-1H-indol-5-yl ester], with 139 °C.
Compound `Cc1cc(OS(=O)(=O)c2c(F)cccc2F)cc2c(C3CCN(C)CC3)cn(Cc3ccccc3)c12` [Example 59, 2,6-Difluorobenzenesulfonic acid 1-benzyl-7-methyl-3-(1-methylpiperidin-4-yl)-1H-indol-5-yl ester] showed a melting point of 158 °C.
As for `Cc1cc(OS(=O)(=O)c2ccccc2)cc2c(C3CCN(C)CC3)c[nH]c12` [Example 62, Benzenesulfonic Acid 7-methyl-3-(1-methylpiperidin-4-yl)-1H-indol-5-yl Ester], the melting point came out at 118 °C.
Same read-out and setting: the result for `Cc1cc(OS(=O)(=O)c2c(Cl)cccc2Cl)cc2c(C3CCN(C)CC3)c[nH]c12` [Example 63, 2,6-Dichlorobenzenesulfonic Acid 7-methyl-3-(1-methylpiperidin-4-yl)-1H-indol-5-yl Ester] reads 179 °C.
On to `CCc1[nH]c2ccc(OC)cc2c1CCN(C)C` [N,N-dimethyl-2-ethyl-5-methoxytryptamine], for which the Ki in data set [1] is 81 nM. Also, in data set [2], the “selectivity versus the 5-HT2A receptor” value is 3.5 fold.
`CNc1cc(NS(=O)(=O)c2ccc(N)cc2)cc(NC)n1` [Ro 63-0563]: the Ki in data set [1] (read-out: Ki) was 12 nM. For the same compound, in data set [3], the pharmacokinetics result is “poor pharmacokinetics”.
Regarding `COc1ccc(NS(=O)(=O)c2sc3ccc(Cl)cc3c2C)cc1N1CCNCC1` [SB-271,046], the bioavailable in data set [3] (in vivo) is 80%. Besides, in [4], the “yawning behavior induced by physostigmine” value is “potentiated the yawning behavior”. For the same compound, in [5], the “glutamate release in the prefrontal cortex” value is reported as “increases glutamate release”. Besides, the “performance in the Morris water maze” value in data set [6] was “improved performance”. Also, the “spatial alternation operant behavior test” value in [7] is listed as “improvements”.
As for `CN1[C@@H]2C[C@@H](OC(=O)[C@H](CO)c3ccccc3)C[C@H]1[C@@H]1O[C@@H]12` [Scopolamine, scopolamine], the “block of stretching behavior induced by Ro 04-6790” value in [8] is on record as “blocked”.
`Nc1c2c(nc3ccccc13)CCCC2` [Tacrine, tacrine]: the retention entry in data set [9] (3 mg/kg) is reported as “not”; in data set [9] (10 mg/kg) it was “significantly improved retention”.
As to `CN1[C@@H]2CC[C@H]1C[C@@H](OC(=O)C(CO)c1ccccc1)C2` (stereo partly drawn) [atropine], the “block of yawning and stretching behavior induced by antisense oligonucleotides targeting the 5-HT6 receptor” value in data set [8] (antisense icv to rats) is “blocked”. The “block of stretching behavior induced by Ro 04-6790” value in data set [8] was “blocked”.
Regarding `O=C(CCCN1CCC(O)(c2ccc(Cl)cc2)CC1)c1ccc(F)cc1` [haloperidol], in [1], the “affinity for the 5-HT6 receptor” value is listed as “do not have significant affinity”.
`Cc1nc2n(c(=O)c1CCN1CCC(c3noc4cc(F)ccc34)CC1)CCCC2` [risperidone]: in data set [1], the “affinity for the 5-HT6 receptor” value was “do not have significant affinity”.
Consider Ro 04-6790, for which the Ki in data set [1] (read-out: Ki) was 50 nM. Further, in data set [3], the pharmacokinetics entry is reported as “poor pharmacokinetics”. The stretching behavior entry in [8] (rat, in vivo) is “induced stretching behavior in a dose-dependent manner”. For the same compound, the “rotational behavior induced by L-DOPA or amphetamine” value in [10] (rat, in vivo) is reported as “did not block”. For the same compound, the “rotation behavior induced by scopolamine” value in data set [10] (rats, unilateral nigrostriatal 6-OH-DA lesions) was “block the rotation behavior”. In data set [11], the “scopolamine induced performance deficits in the object recognition test” value was “reversed scopolamine induced performance deficits”.
